Experimental data from US9493444B2 (Merck Patent GmbH, priority 2012, dated 2016).

Test system: Wnt pathway (TCF-dependent transcription in HEK293 luciferase reporter cell line with ER-DSH construct)
Assay: Cellular assay for Wnt pathway activity (luciferase reporter)
Format: cell-based
Conditions: Homo sapiens; Wnt pathway inhibition, HEK293 luciferase reporter cells (ER-DSH, TCF promoter), 24 hours incubation, estrogen-induced
Summary of the method: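 Compounds (30 μM down to 1 nM) were incubated 24 h on cells induced for TCF-dependent transcription with estrogen. Luciferase activity was read by luminescence, normalized to untreated vehicle control, and fitted for IC50.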

Row | Structure (SMILES) | IC50
1 | CC(=O)N(C)CCN(C)c1cncc(Oc2ccc(-c3ccc(C)cn3)cc2)c1 [Compound 320, N-Methyl-N-[2-(methyl-{5-[4-(5-methyl-pyridin-2-yl)-phenoxy]-pyridin-3-yl}-amino)-ethyl]-acetamide] | 200 to 1000 nM
2 | CC(=O)N(C)CCN(C)c1cncc(Oc2ccc(-c3ccc(N4CCOCC4)nc3)cc2F)n1 [Compound 239, N-[2-({6-[2-Fluoro-4-(6-morpholin-4-yl-pyridin-3-yl)-phenoxy]-pyrazin-2-yl}-methyl-amino)-ethyl]-N-methyl-acetamide] | < 200 nM
3 | CC(=O)N(C)CCNc1cncc(Oc2ccc(-c3ccc(C#N)nc3)cc2)n1 [Compound 276, N-(2-{6-[4-(6-Cyano-pyridin-3-yl)-phenoxy]-pyrazin-2-ylamino}-ethyl)-N-methyl-acetamide] | 200 to 1000 nM
4 | CC(=O)N(C)CCN(C)c1cncc(Oc2ccc(-c3cncc4[nH]ccc34)cc2)n1 [Compound 237, N-Methyl-N-[2-(methyl-{6-[4-(1H-pyrrolo[2,3-c]pyridin-4-yl)-phenoxy]-pyrazin-2-yl}-amino)-ethyl]-acetamide] | 200 to 1000 nM
5 | CN(CCN(C)c1cncc(Oc2ccc3ncccc3c2)n1)C(=O)C(F)(F)F [Compound 74, 2,2,2-Trifluoro-N-methyl-N-(2-{methyl-[6-(quinolin-6-yloxy)-pyrazin-2-yl]-amino}-ethyl)-acetamide] | 1000 to 10000 nM
6 | CC(=O)NCCN(C)c1cncc(Oc2ccc(F)cc2)n1 [Compound 58, N-(2-{[6-(4-Fluoro-phenoxy)-pyrazin-2-yl]-methyl-amino}-ethyl)-acetamide] | 1000 to 10000 nM
7 | CC(=O)N(C)CCN(C)c1cncc(Oc2ccc(-c3ccc(CN)nc3)cc2)n1 [Compound 309] | < 200 nM
8 | COc1cccc(Oc2cncc(N(C)CCN(C)C(C)=O)n2)c1 [Compound 41, N-(2-{[6-(3-Methoxy-phenoxy)-pyrazin-2-yl]-methyl-amino}-ethyl)-N-methyl-acetamide] | 1000 to 10000 nM
9 | CC(=O)N(C)CCN(C)c1cncc(Oc2ccc(-c3ccc(CO)nc3)cc2)n1 [Compound 8, N-[2-({6-[4-(6-Hydroxymethyl-pyridin-3-yl)-phenoxy]-pyrazin-2-yl}-methyl-amino)-ethyl]-N-methyl-acetamide] | < 200 nM
10 | CCOC(=O)C(C)c1ccc(Oc2cncc(N(C)CCN(C)C(C)=O)n2)cc1 (stereo not drawn) [Compound 138, 2-[4-(6-{[2-(Acetyl-methyl-amino)-ethyl]-methyl-amino}-pyrazin-2-yloxy)-phenyl]-propionic acid ethyl ester] | 200 to 1000 nM
11 | COc1ccc(Oc2cncc(N(C)CCN(C)S(=O)(=O)c3cc(F)ccc3F)n2)cc1 [Compound 61, 2,5-Difluoro-N-(2-{[6-(4-methoxy-phenoxy)-pyrazin-2-yl]-methyl-amino}-ethyl)-N-methyl-benzene-sulfonamide] | 1000 to 10000 nM
12 | CCN(CC1CCCN(c2cncc(Oc3ccc(OC)cc3)n2)C1)C(C)=O (stereo not drawn) [Compound 73, N-Ethyl-N-{1-[6-(4-methoxy-phenoxy)-pyrazin-2-yl]-piperidin-3-ylmethyl}-acetamide] | 1000 to 10000 nM
13 | CC(=O)N(C)CCN(C)c1cncc(Oc2ccc(C#N)cc2)n1 [Compound 122, N-(2-{[6-(4-Cyano-phenoxy)-pyrazin-2-yl]-methyl-amino}-ethyl)-N-methyl-acetamide] | < 200 nM
14 | CC(=O)N(C)CCNc1cncc(Oc2ccc(F)cc2)c1 [Compound 315, N-{2-[5-(4-Fluoro-phenoxy)-pyridin-3-ylamino]-ethyl}-N-methyl-acetamide] | ≥ 10000 nM
15 | CC(=O)N(C)CCCc1cncc(Oc2ccc(-c3cnc(N)cn3)cc2F)n1 [Compound 269, N-(3-{6-[4-(5-Amino-pyrazin-2-yl)-2-fluoro-phenoxy]-pyrazin-2-yl}-propyl)-N-methyl-acetamide] | 200 to 1000 nM
16 | CC(=O)N(C)CCN(C)c1cncc(O[C@H]2C[C@H]3CC[C@@H]2C3)n1 [Compound 208, N-(2-{[6-((1R,2S,4S)-Bicyclo[2.2.1]hept-2-yloxy)-pyrazin-2-yl]-methyl-amino}-ethyl)-N-methyl-acetamide] | 1000 to 10000 nM
17 | CC(=O)N(C)CCN(C)c1cncc(Oc2cnn(-c3cccc(C(F)(F)F)c3)c2)n1 [Compound 222, N-Methyl-N-[2-(methyl-{6-[1-(3-trifluoromethyl-phenyl)-1H-pyrazol-4-yloxy]-pyrazin-2-yl}-amino)-ethyl]-acetamide] | 1000 to 10000 nM
18 | CC(=O)N(C)CCN(C)c1cncc(Oc2ccc(-c3ncccn3)cc2)n1 [Compound 161, N-Methyl-N-(2-{methyl-[6-(4-pyrimidin-2-yl-phenoxy)-pyrazin-2-yl]-amino}-ethyl)-acetamide] | 200 to 1000 nM
19 | CC(=O)N(C)CCN(C)c1cncc(Oc2ccc(C(C)(C)C)cc2)n1 [Compound 85, N-(2-{[6-(4-tert-Butyl-phenoxy)-pyrazin-2-yl]-methyl-amino}-ethyl)-N-methyl-acetamide] | < 200 nM
20 | Cc1ccc(-c2ccc(Oc3cncc(NCCN4CCCC4=O)n3)cc2)nc1 [Compound 196, 1-(2-{6-[4-(5-Methyl-pyridin-2-yl)-phenoxy]-pyrazin-2-ylamino}-ethyl)-pyrrolidin-2-one] | < 200 nM

Row | Structure (SMILES) | IC50
21 | CNCc1ccc(-c2ccc(Oc3cncc(N(C)CCN(C)C(C)=O)n3)cc2)cn1 [Compound 265, N-Methyl-N-[2-(methyl-{6-[4-(6-methylaminomethyl-pyridin-3-yl)-phenoxy]-pyrazin-2-yl}-amino)-ethyl]-acetamide] | < 200 nM
22 | CC(=O)Oc1cnc(-c2ccc(Oc3cncc(N(C)CCN(C)C(C)=O)n3)cc2)nc1 [Compound 155, Acetic acid 2-[4-(6-{[2-(acetyl-methyl-amino)-ethyl]-methyl-amino}-pyrazin-2-yloxy)-phenyl]-pyrimidin-5-yl ester] | 1000 to 10000 nM
23 | CC(=O)N(C)CCN(C)c1cncc(Oc2ccc(CC#N)cc2)n1 [Compound 142, N-(2-{[6-(4-Cyano-methyl-phenoxy)-pyrazin-2-yl]-methyl-amino}-ethyl)-N-methyl-acetamide] | < 200 nM
24 | CN(CCN1CCCCC1=O)c1cncc(Oc2ccc(F)cc2)n1 [Compound 116, 1-(2-{[6-(4-Fluoro-phenoxy)-pyrazin-2-yl]-methyl-amino}-ethyl)-piperidin-2-one] | < 200 nM
25 | CC(=O)N(C)CCN(C)c1cncc(Oc2ccc(N3CCN(C(C)=O)CC3)cc2)n1 [Compound 87, N-[2-({6-[4-(4-Acetyl-piperazin-1-yl)-phenoxy]-pyrazin-2-yl}-methyl-amino)-ethyl]-N-methyl-acetamide] | 200 to 1000 nM
26 | CC(=O)N(C)CCCc1cncc(Oc2ccc(-c3ccc(C)cn3)cc2)n1 [Compound 215, N-Methyl-N-(3-{6-[4-(5-methyl-pyridin-2-yl)-phenoxy]-pyrazin-2-yl}-propyl)-acetamide] | 200 to 1000 nM
27 | CC(=O)N(C)CCNc1cncc(Oc2ccc(-c3cnc(N)cn3)cc2)n1 [Compound 241, N-(2-{6-[4-(5-Amino-pyrazin-2-yl)-phenoxy]-pyrazin-2-ylamino}-ethyl)-N-methyl-acetamide] | 1000 to 10000 nM
28 | CC(=O)N(C)CCN(C)c1cncc(Oc2ccc3c(c2)OCO3)n1 [Compound 91, N-(2-{[6-(Benzo[1,3]dioxol-5-yloxy)-pyrazin-2-yl]-methyl-amino}-ethyl)-N-methyl-acetamide] | 200 to 1000 nM
29 | COc1ccc(Oc2cncc(NCC3CCCN(C(C)=O)C3)n2)cc1 (stereo not drawn) [Compound 38, 1-(3-{[6-(4-Methoxy-phenoxy)-pyrazin-2-ylamino]-methyl}-piperidin-1-yl)-ethanone] | 1000 to 10000 nM
30 | O=C1NCCN1CCNc1cncc(Oc2ccc(F)cc2)n1 [Compound 278, 1-{2-[6-(4-Fluoro-phenoxy)-pyrazin-2-ylamino]-ethyl}-imidazolidin-2-one] | 200 to 1000 nM
31 | CC(=O)N(C)CCN(C)c1cncc(Oc2ccc(-c3ccc(F)cn3)cc2)n1 [Compound 152, N-[2-({6-[4-(5-Fluoro-pyridin-2-yl)-phenoxy]-pyrazin-2-yl}-methyl-amino)-ethyl]-N-methyl-acetamide] | < 200 nM
32 | COc1ccc(Oc2cncc(N(C)CCN(C)C(C)=O)n2)cc1 [Compound 30, N-(2-{[6-(4-Methoxy-phenoxy)-pyrazin-2-yl]-methyl-amino}-ethyl)-N-methyl-acetamide] | 200 to 1000 nM
33 | CC(=O)Nc1ccc(-c2ccc(Oc3cncc(NCCN(C)C(C)=O)n3)c(F)c2)cn1 [Compound 258, N-[5-(4-{6-[2-(Acetyl-methyl-amino)-ethylamino]-pyrazin-2-yloxy}-3-fluoro-phenyl)-pyridin-2-yl]-acetamide] | 200 to 1000 nM
34 | COc1ccc(Oc2cncc(N(C)CCNC(C)=O)n2)cc1 [Compound 59, N-(2-{[6-(4-Methoxy-phenoxy)-pyrazin-2-yl]-methyl-amino}-ethyl)-acetamide] | 200 to 1000 nM
35 | CC(=O)N(C)CCN(C)c1cncc(Oc2ccccc2F)n1 [Compound 51, N-(2-{[6-(2-Fluoro-phenoxy)-pyrazin-2-yl]-methyl-amino}-ethyl)-N-methyl-acetamide] | 200 to 1000 nM
36 | CC(=O)N(C)CCN(C)c1cncc(Oc2ccc(O)cc2)n1 [Compound 56, N-(2-{[6-(4-Hydroxy-phenoxy)-pyrazin-2-yl]-methyl-amino}-ethyl)-N-methyl-acetamide] | 200 to 1000 nM
37 | CC(=O)N(C)CCN(C)c1cncc(Oc2ccc(-c3cccc(N4CCN(C)CC4)n3)cc2F)n1 [Compound 253, N-{2-[(6-{2-Fluoro-4-[6-(4-methyl-piperazin-1-yl)-pyridin-2-yl]-phenoxy}-pyrazin-2-yl)-methyl-amino]-ethyl}-N-methyl-acetamide] | < 200 nM
38 | CC(=O)N(C)CCN(C)c1cncc(Oc2ccc(Cc3ncc(C(F)(F)F)cc3Cl)cc2)n1 [Compound 159, N-[2-({6-[4-(3-Chloro-5-trifluoro-methyl-pyridin-2-ylmethyl)-phenoxy]-pyrazin-2-yl}-methyl-amino)-ethyl]-N-methyl-acetamide] | 200 to 1000 nM
39 | CCN(CCN(C)c1cncc(Oc2cccc(F)c2)n1)C(C)=O [Compound 82, N-Ethyl-N-(2-{[6-(3-fluoro-phenoxy)-pyrazin-2-yl]-methyl-amino}-ethyl)-acetamide] | 200 to 1000 nM
